What was measured:
[1] = Bimatoprost sampled in the aqueous humor of dogs over time (FIG. 9); assay type: in vivo
Source text: FIG. 9 is an exemplary graph of a therapeutic agent delivered to the aqueous humor of an eye of canines versus time.
In this example, there was a low dose group of dogs (Grp 1), a mid-dose group of dogs (Grp 2), a high dose group of dogs (Grp 3), and a placebo group of dogs (Grp 4).

[2] = daily release or elution of Bimatoprost in vitro versus time (FIG. 8); assay type: physicochemical; conditions: four-hundred-day study
Source text: FIG. 8 is an exemplary graph of daily release or elution of a pharmaceutical or therapeutic agent in vitro versus time. […] The target release rate in this study on rabbits was 0.050 to 0.100 micrograms per day.

level of Bimatoprost in the aqueous humor, elution order ([1]; low dose (Grp 1), mid-dose (Grp 2), high dose (Grp 3), study period about one hundred thirteen days): zero-order elution rate
mean measurements of Bimatoprost in the aqueous humor versus dose ([1]; low, mid and high dose groups, sampled in ng/mL): increased with the higher doses
Structure (SMILES): CCNC(=O)CCC/C=C\C[C@@H]1[C@@H](/C=C/[C@@H](O)CCc2ccccc2)[C@H](O)C[C@@H]1O [Bimatoprost]
release rate order over time [2]: essentially a zero-order and/or a steady state elution rate
